Test results published in patent US20230111310A1, “CARBOXYLIC ACID DERIVATIVE-SUBSTITUTED IMINO ARYL COMPOUND, PREPARATION METHOD THEREFOR, HERBICIDAL COMPOSITION AND USE THEREOF” (Qingdao Kingagroot Chemical Compound Co., Ltd., priority 2020, published 2023).

Each compound was assayed on Abutilon theophrasti (assay: Weeding effect in post-emergence stage). Conditions: Dose 15 g/ha; fresh weight control rate level.
Assay type: in vivo
Source text: The activity level criteria for plant damage (i.e., growth control rate) are as follows:
Monocotyledonous and dicotyledonous weed seeds (Descurainia sophia, Capsella bursa-pastoris, Abutilon theophrasti, Galium aparine, Stellaria media, Lithospermum arvense, rorippa indica, Alopecurus aequalis, Alopecurus japonicus, Eleusine indica, Beckmannia syzigachne, Sclerochloa dura, Conyza Canadensis, Phleum paniculatum, Veronica didyma Tenore, Bromus japonicus, Aegilops tauschii, Phalaris arundinacea, Amaranthus retroflexus, Chenopodiaceae, Commelina communis, Sonchus arvensis, Convolvulus arvensis, Cirsium setosum, Bidens tripartita L., Solanum nigrum, Acalypha australis, Digitaria sanguinalis, Echinochloa crusgalli, Setaria viridis, Setaria glauca, Leptochloa chinensis, Monochoria vaginalis, Sagittaria trifolia, Scirpus juncoides, Cyperus rotundus, Cyperus iria, Cyperus difformis, Fimbristylis, Portulaca oleracea, Xanthium sibiricum, Pharbitis nil, etc.) and major crop seeds (wheat, corn, rice, soybean, cotton, oilseed rape, millet, sorghum, potato, sesame, ricinus, etc.) were placed in plastic pots filled with soil, then covered with 0.5-2 cm of soil, allowed to grow in a good greenhouse environment. After 2 weeks of sowing, the test plants were treated in the 2-3 leaf stage. The tested compounds of the present invention were respectively dissolved in acetone, then added with Tween 80 and 1.5 liter/ha of emulsifiable concentrate of methyl oleate as synergist, diluted with a certain amount of water to obtain a solution with a certain concentration, and sprayed with a spray tower onto the plants. After the application, the plants were cultured for 3 weeks in the greenhouse, and then the experimental results of the weeding were counted. […]

Row | Compound | Weeding effect in post-emergence stage, Abutilon theophrasti (level)
1 | CCC(C)(O/N=C/c1cc(-n2c(=O)cc(C(F)(F)F)n(C)c2=O)c(F)cc1Cl)C(=O)OC (racemic) [Compound 471] | 5 (Level 5: growth control rate is above 85%)
2 | COC(=O)C(C)O/N=C/c1cc(-n2c(=O)c(Br)c(C(F)(F)F)n(C)c2=O)c(F)cc1Cl (racemic) [Compound 475] | 5 (Level 5: growth control rate is above 85%)
3 | COC(=O)C(C)O/N=C/c1cc(-n2c(=O)c(I)c(C(F)(F)F)n(C)c2=O)c(F)cc1Cl (racemic) [Compound 476] | 5 (Level 5: growth control rate is above 85%)
4 | COC(=O)C(C)O/N=C/c1cc(-n2c(=O)c(OC)c(C(F)(F)F)n(C)c2=O)c(F)cc1Cl (racemic) [Compound 477] | 5 (Level 5: growth control rate is above 85%)
5 | COC(=O)CC(C)O/N=C/c1cc(-n2c(=O)cc(C(F)(F)F)n(C)c2=O)c(F)cc1Cl (racemic) [Compound 481] | 5 (Level 5: growth control rate is above 85%)
6 | CC(ON=Cc1cc(-n2c(=O)cc(C(F)(F)F)n(C)c2=O)c(F)cc1Cl)C(=O)OCCOC(=O)C(C)ON=Cc1cc(-n2c(=O)cc(C(F)(F)F)n(C)c2=O)c(F)cc1Cl [451(R)] | 5 (Level 5: growth control rate is above 85%)
7 | C[C@@H](O/N=C/c1cc(-n2c(=O)cc(C(F)(F)F)n(C)c2=O)c(F)cc1Cl)C(=O)NO [452(R)] | 5 (Level 5: growth control rate is above 85%)
8 | CC[C@@](C)(O/N=C/c1cc(-n2c(=O)cc(C(F)(F)F)n(C)c2=O)c(F)cc1Cl)C(=O)OC [471(R)] | 5 (Level 5: growth control rate is above 85%)
9 | COC(=O)[C@@H](C)O/N=C/c1cc(-n2c(=O)c(Br)c(C(F)(F)F)n(C)c2=O)c(F)cc1Cl [475(R)] | 5 (Level 5: growth control rate is above 85%)
10 | COC(=O)[C@@H](C)O/N=C/c1cc(-n2c(=O)c(I)c(C(F)(F)F)n(C)c2=O)c(F)cc1Cl [476(R)] | 5 (Level 5: growth control rate is above 85%)
11 | COC(=O)[C@@H](C)O/N=C/c1cc(-n2c(=O)c(OC)c(C(F)(F)F)n(C)c2=O)c(F)cc1Cl [477(R)] | 5 (Level 5: growth control rate is above 85%)
12 | COC(=O)C[C@@H](C)O/N=C/c1cc(-n2c(=O)cc(C(F)(F)F)n(C)c2=O)c(F)cc1Cl [481(R)] | 5 (Level 5: growth control rate is above 85%)
13 | CC(O/N=C/c1cc(-n2c(=O)cc(C(F)(F)F)n(C)c2=O)c(F)cc1Cl)C(=O)OCCOC(=O)C(C)O/N=C/c1cc(-n2c(=O)cc(C(F)(F)F)n(C)c2=O)c(F)cc1Cl (stereo not drawn) [Compound 451] | 5 (Level 5: growth control rate is above 85%)
14 | CC(O/N=C/c1cc(-n2c(=O)cc(C(F)(F)F)n(C)c2=O)c(F)cc1Cl)C(=O)NO (stereo not drawn) [Compound 452] | 5 (Level 5: growth control rate is above 85%)
15 | COC(=O)CCO/N=C/c1cc(-n2c(=O)cc(C(F)(F)F)n(C)c2=O)c(F)cc1Cl [Compound 479] | 5 (Level 5: growth control rate is above 85%)
16 | CCOC(=O)CCO/N=C/c1cc(-n2c(=O)cc(C(F)(F)F)n(C)c2=O)c(F)cc1Cl [Compound 480] | 5 (Level 5: growth control rate is above 85%)

Same assay, conditions: Dose 60 g/ha; fresh weight control rate level

Row | Compound | Weeding effect in post-emergence stage, Abutilon theophrasti (level)
17 | CC(O/N=C/c1cc(-n2c(=O)c(CCO)c(C(F)(F)F)n(C)c2=O)c(F)cc1Cl)C(=O)OCCO (racemic) [Compound 478] | 5 (Level 5: growth control rate is above 85%)
18 | C[C@@H](O/N=C/c1cc(-n2c(=O)c(CCO)c(C(F)(F)F)n(C)c2=O)c(F)cc1Cl)C(=O)OCCO [478(R)] | 5 (Level 5: growth control rate is above 85%)
